From patent US6500944B2, “Sulfurizing reagent: 3-aryl-1,2,4-dithiazoline-5-ones” (Avecia Biotechnology, Inc., priority 1997, dated 2002)

Experiments:
[1] = Solubility study in CH3CN; format: physicochemical; details: 25° C.
Procedure: (§1) The solubility and stability studies were carried out in CH3CN at 25° C. The saturated solution was dried, and the solubility was determined by the weight of the testing compounds in the exact volume of testing solution. The stability was determined based on either TLC or HPLC and ^1H-NMR analyses.

Stability study in CH3CN = format: physicochemical; details: 25° C., checked by HPLC and 1H-NMR
Procedure: Stability and solubility studies of the sulfur transfer reagents were performed. […] The stability of the compound was checked by HPLC and ^1H-NMR.
as §1

O=c1nc(-c2ccccc2)ss1 [3-phenyl-1,2,4-dithiazoline-5-one]
solubility in CH3CN [1]: highly soluble | stable in CH3CN (Stability study in CH3CN): more than thirty
